The values that follow come from US20070213346A1, “Substituted 4-Alkyl-And 4-Alkanoyl-Piperidine Derivatives And Their Use As Neurokinin Antagonists” (priority 2004, published 2007).

The target of one experiment is NK1 (Homo sapiens, UniProt P25103). In words: Signal transduction (ST), intracellular Ca++ FLIPR, NK1. Particulars: antagonist, Ca++ transient peak, read-out: NK1 pIC50 (converted). It is filed as cell-based. The protocol: (§1) This test evaluates in vitro functional NK1 antagonistic activity. For the measurements of intracellular Ca^++ concentrations the cells were grown on 96-well (black wall/transparent bottom) plates from Costar for 2 days until they reached confluence. The cells were loaded with 2 μM Fluo3 in DMEM containing 0.1% BSA and 2.5 mM probenecid for 1 h at 37° C. They were washed 3× with a Krebs buffer (140 mM NaCl, 1 mM MgCl2x6H2O, 5 mM KCl, 10 mM glucose, 5 mM HEPES; 1.25 mM CaCl2; pH 7.4) containing 2.5 mM probenecid and 0.1% BSA (Ca^++-buffer). The cells were preincubated with a concentration range of antagonists for 20 min at RT and Ca^++-signals after addition of the agonists were measured in a Fluorescence Image Plate Reader (FLIPR from Molecular Devices, Crawley, England). The peak of the Ca^++-transient was considered as the relevant signal and the mean values of corresponding wells were analysed as described below.
Sequence of NK1 (P25103 whole entry): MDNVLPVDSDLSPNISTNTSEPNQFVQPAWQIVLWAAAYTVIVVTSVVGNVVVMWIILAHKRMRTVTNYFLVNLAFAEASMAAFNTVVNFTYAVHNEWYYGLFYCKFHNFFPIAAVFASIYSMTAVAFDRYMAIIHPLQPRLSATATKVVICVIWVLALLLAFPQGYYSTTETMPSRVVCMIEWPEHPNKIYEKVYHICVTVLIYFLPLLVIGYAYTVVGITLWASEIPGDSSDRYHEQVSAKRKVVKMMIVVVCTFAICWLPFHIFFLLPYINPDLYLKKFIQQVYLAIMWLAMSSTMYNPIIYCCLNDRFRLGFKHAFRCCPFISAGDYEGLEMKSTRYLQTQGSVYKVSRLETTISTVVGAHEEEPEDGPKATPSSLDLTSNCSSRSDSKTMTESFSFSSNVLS
The sigmoidal dose response curves were analysed by computerised curve-fitting, using the GraphPad program. The EC50-value of a compound is the effective dose showing 50% of maximal effect. For mean curves the response to the agonist with the highest potency was normalised to 100%. For antagonist responses the IC50-value was calculated using non-linear regression. […]

Another experiment deals with T1, NK3 (Homo sapiens, UniProt P29371).
T1 sequence (P29371 1-465): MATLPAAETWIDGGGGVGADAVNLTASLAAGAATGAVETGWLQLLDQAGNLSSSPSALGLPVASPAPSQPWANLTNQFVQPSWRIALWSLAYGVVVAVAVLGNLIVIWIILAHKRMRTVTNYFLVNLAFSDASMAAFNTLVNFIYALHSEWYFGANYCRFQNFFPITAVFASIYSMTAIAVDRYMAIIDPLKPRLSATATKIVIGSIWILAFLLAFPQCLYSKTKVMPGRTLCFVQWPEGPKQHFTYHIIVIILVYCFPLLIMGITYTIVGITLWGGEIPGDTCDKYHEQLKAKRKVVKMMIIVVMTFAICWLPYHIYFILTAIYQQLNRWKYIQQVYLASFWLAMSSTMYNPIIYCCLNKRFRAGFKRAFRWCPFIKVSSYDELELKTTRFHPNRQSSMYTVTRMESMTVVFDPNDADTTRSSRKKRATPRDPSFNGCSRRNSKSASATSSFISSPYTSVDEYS
In words: Signal transduction (ST), intracellular Ca++ FLIPR, NK3. Type of experiment: cell-based. Particulars: antagonist, Ca++ transient peak, read-out: NK3 pIC50 (converted). The protocol:
[The source words this procedure for another target and reports this target under the same test.] as §1
The sigmoidal dose response curves were analysed by computerised curve-fitting, using the GraphPad program. The EC50-value of a compound is the effective dose showing 50% of maximal effect. For mean curves the response to the agonist with the highest potency was normalised to 100%. For antagonist responses the IC50-value was calculated using non-linear regression.
The last columns indicates—without being limited thereto—for which use the compounds might be most suitable. Of course, since for some neurokinin receptors no data was determined, it is obvious that these compounds might be attributed to another suitable use.

On to `CC(C)(C)OC(=O)N1CCC(N2CCN(C(=O)CC3CCN(C(=O)c4cc(C(F)(F)F)cc(C(F)(F)F)c4)[C@@H](Cc4ccccc4)C3)CC2)C1` (mixture of isomers) [Compound 7], for which the IC50 is 174 nM on NK1 and more than 10000 nM on NK3.
The matching figures for `O=C(CC1CCN(C(=O)c2cc(C(F)(F)F)cc(C(F)(F)F)c2)[C@@H](Cc2ccccc2)C1)N1CCN(C2CCN(C(=O)C3CCOC3)C2)CC1` (mixture of isomers) [Compound 73]: 41.7 nM and more than 10000 nM.
`O=C(c1cc2ccccc2oc1=O)N1CCC(N2CCN(C[C@H]3CCN(C(=O)c4cc(C(F)(F)F)cc(C(F)(F)F)c4)[C@H](Cc4ccccc4)C3)CC2)CC1` (relative stereo) [Compound 50]: the IC50 at NK1 is 91.2 nM.
With `O=C(C1CCN(C(=O)c2cc(C(F)(F)F)cc(C(F)(F)F)c2)C(Cc2ccccc2)C1)N1CCN(C2CCN(Cc3ccccc3)CC2)CC1` (stereo not drawn) [Compound 3], the IC50 is 347 nM at NK1 and more than 10000 nM at NK3.
The matching figures for `O=C(C1CCN(C(=O)c2cc(C(F)(F)F)cc(C(F)(F)F)c2)C(Cc2ccccc2)C1)N1CCN(C2CCNCC2)CC1` (stereo not drawn) [Compound 4]: 251 nM and more than 10000 nM.
Regarding `CC(C)(C)OC(=O)N1CCC(N2CCN(CC3CCN(C(=O)c4cc(C(F)(F)F)cc(C(F)(F)F)c4)C(Cc4ccccc4)C3)CC2)CC1` (stereo not drawn) [Compound 5], the IC50 was 209 nM at NK1 and more than 10000 nM at NK3.
The matching figures for `O=C(CC1CCN(C(=O)c2cc(C(F)(F)F)cc(C(F)(F)F)c2)C(Cc2ccccc2)C1)N1CCN(C2CCNC2)CC1` (stereo not drawn) [Compound 8]: 302 nM and more than 10000 nM.
Turning to `Cc1cc(C)cc(C(=O)N2CCC(N3CCN(CC4CCN(C(=O)c5cc(C(F)(F)F)cc(C(F)(F)F)c5)C(Cc5ccccc5)C4)CC3)CC2)c1` (stereo not drawn) [Compound 12], the IC50 on NK1 was 316 nM.
Take `O=C(C1CCN(C(=O)c2cc(C(F)(F)F)cc(C(F)(F)F)c2)C(Cc2ccccc2)C1)N1CCN(C2CCN(S(=O)(=O)c3cccs3)C2)CC1` (stereo not drawn) [Compound 13]: the IC50 was 13.2 nM at NK1 and 2510 nM at NK3.
Take `O=C(c1ccc2ccccc2n1)N1CCC(N2CCN(CC3CCN(C(=O)c4cc(C(F)(F)F)cc(C(F)(F)F)c4)C(Cc4ccccc4)C3)CC2)CC1` (stereo not drawn) [Compound 16]: at NK1, the IC50 was 138 nM.
With `Cn1cccc1C(=O)N1CCC(N2CCN(CC3CCN(C(=O)c4cc(C(F)(F)F)cc(C(F)(F)F)c4)C(Cc4ccccc4)C3)CC2)CC1` (stereo not drawn) [Compound 33], the IC50 on NK1 is 224 nM.
As for `Cn1cccc1C(=O)N1CCC(N2CCN(C[C@H]3CCN(C(=O)c4cc(C(F)(F)F)cc(C(F)(F)F)c4)[C@H](Cc4ccccc4)C3)CC2)CC1` [Compound 34], the IC50 at NK1 was 209 nM.
For the compound `Cc1cc(C(=O)N2CCC(N3CCN(C[C@H]4CCN(C(=O)c5cc(C(F)(F)F)cc(C(F)(F)F)c5)[C@H](Cc5ccccc5)C4)CC3)CC2)no1` [Compound 36], the IC50 at NK1 was 46.8 nM.
Regarding `Cn1cc(C(=O)N2CCC(N3CCN(CC4CCN(C(=O)c5cc(C(F)(F)F)cc(C(F)(F)F)c5)C(Cc5ccccc5)C4)CC3)CC2)c2ccccc21` (stereo not drawn) [Compound 40], the IC50 at NK1 was 347 nM.
As to `Cc1cccc(C(=O)N2CCC(N3CCN(C[C@H]4CCN(C(=O)c5cc(C(F)(F)F)cc(C(F)(F)F)c5)[C@H](Cc5ccccc5)C4)CC3)CC2)c1` [Compound 41], on NK1, the IC50 is 166 nM.
With `O=C(c1ccccc1O)N1CCC(N2CCN(CC3CCN(C(=O)c4cc(C(F)(F)F)cc(C(F)(F)F)c4)C(Cc4ccccc4)C3)CC2)CC1` (stereo not drawn) [Compound 43], at NK1, the IC50 is 123 nM.
Take `O=C(c1cccc(O)c1)N1CCC(N2CCN(CC3CCN(C(=O)c4cc(C(F)(F)F)cc(C(F)(F)F)c4)C(Cc4ccccc4)C3)CC2)CC1` (stereo not drawn) [Compound 44]: the IC50 at NK1 was 87.1 nM.
With `O=C(c1ccccn1)N1CCC(N2CCN(C[C@H]3CCN(C(=O)c4cc(C(F)(F)F)cc(C(F)(F)F)c4)[C@H](Cc4ccccc4)C3)CC2)CC1` [Compound 47], the IC50 at NK1 is 204 nM.
For the compound `O=C(Cc1c[nH]cn1)N1CCC(N2CCN(CC3CCN(C(=O)c4cc(C(F)(F)F)cc(C(F)(F)F)c4)C(Cc4ccccc4)C3)CC2)CC1` (stereo not drawn) [Compound 51], the IC50 at NK1 was 120 nM.
The same measure, in the same setting: the result for `COc1cc(CC(=O)N2CCC(N3CCN(CC4CCN(C(=O)c5cc(C(F)(F)F)cc(C(F)(F)F)c5)C(Cc5ccccc5)C4)CC3)CC2)cc(OC)c1OC` (stereo not drawn) [Compound 53] reads 85.1 nM.
Consider `O=C(c1ccoc1)N1CCC(N2CCN(C(=O)[C@H]3CCN(C(=O)c4cc(C(F)(F)F)cc(C(F)(F)F)c4)[C@H](Cc4ccccc4)C3)CC2)CC1` [Compound 57], for which the results for the IC50 on NK1 and on NK3 were 22.9 nM and 2450 nM, respectively.
`Cc1nnsc1C(=O)N1CCC(N2CCN(C(=O)[C@H]3CCN(C(=O)c4cc(C(F)(F)F)cc(C(F)(F)F)c4)[C@H](Cc4ccccc4)C3)CC2)CC1` [Compound 58]: the IC50 at NK1 is 8.71 nM; on NK3, more than 10000 nM.
The matching figures for `O=C(c1ccccc1)N1CCC(N2CCN(C(=O)[C@H]3CCN(C(=O)c4cc(C(F)(F)F)cc(C(F)(F)F)c4)[C@H](Cc4ccccc4)C3)CC2)CC1` [Compound 59]: 10.7 nM and 9550 nM.
For `O=C([C@H]1CCN(C(=O)c2cc(C(F)(F)F)cc(C(F)(F)F)c2)[C@H](Cc2ccccc2)C1)N1CCN(C2CCNC2)CC1` (stereo partly drawn) [Compound 66] the same measures were 214 nM and 6760 nM.
As for `O=C([C@H]1CCN(C(=O)c2cc(C(F)(F)F)cc(C(F)(F)F)c2)[C@H](Cc2ccccc2)C1)N1CCN(C2CCN(Cc3ccccc3)C2)CC1` (stereo partly drawn) [Compound 67], the IC50 is 75.9 nM at NK1 and more than 10000 nM on NK3.
For `O=C(C1CC1)N1CCC(N2CCN(C(=O)[C@H]3CCN(C(=O)c4cc(C(F)(F)F)cc(C(F)(F)F)c4)[C@H](Cc4ccccc4)C3)CC2)C1` (stereo partly drawn) [Compound 68] the same measures were 13.2 nM and 6610 nM.
On to `O=C(C1CCOC1)N1CCC(N2CCN(C(=O)[C@H]3CCN(C(=O)c4cc(C(F)(F)F)cc(C(F)(F)F)c4)[C@H](Cc4ccccc4)C3)CC2)C1` (stereo partly drawn) [Compound 69], for which the IC50 on NK1 was 39.8 nM; at NK3, 6030 nM.
The matching figures for `O=C(c1ccoc1)N1CCC(N2CCN(C(=O)[C@H]3CCN(C(=O)c4cc(C(F)(F)F)cc(C(F)(F)F)c4)[C@H](Cc4ccccc4)C3)CC2)C1` (stereo partly drawn) [Compound 70]: 25.7 nM and more than 10000 nM.
For the compound `O=C(c1ccccc1Cl)N1CCC(N2CCN(C(=O)[C@H]3CCN(C(=O)c4cc(C(F)(F)F)cc(C(F)(F)F)c4)[C@H](Cc4ccccc4)C3)CC2)C1` (stereo partly drawn) [Compound 72], the IC50 was 31.6 nM on NK1 and more than 10000 nM at NK3.
The matching figures for `COC1(CN2CCN(C3CCNC3)CC2)CCN(C(=O)c2cc(C(F)(F)F)cc(C(F)(F)F)c2)C(Cc2ccccc2)C1` (stereo not drawn) [Compound 81]: 200 nM and more than 10000 nM.
Turning to `COC1(CN2CCN(C3CCN(C(=O)c4ccoc4)C3)CC2)CCN(C(=O)c2cc(C(F)(F)F)cc(C(F)(F)F)c2)C(Cc2ccccc2)C1` (stereo not drawn) [Compound 85], the results for the IC50 on NK1 and on NK3 were 64.6 nM and more than 10000 nM, respectively.
On to `COC1(CN2CCN(C3CCN(C(=O)c4snnc4C)C3)CC2)CCN(C(=O)c2cc(C(F)(F)F)cc(C(F)(F)F)c2)C(Cc2ccccc2)C1` (stereo not drawn) [Compound 86], for which the IC50 on NK1 was 67.6 nM; at NK3 it was 10200 nM.
For `COC1(CN2CCN(C3CCN(C(=O)c4ccccc4)C3)CC2)CCN(C(=O)c2cc(C(F)(F)F)cc(C(F)(F)F)c2)C(Cc2ccccc2)C1` (stereo not drawn) [Compound 87] the same measures were 115 nM and more than 10000 nM.
On to `COC1(CN2CCN(C3CCN(C(=O)c4cccnc4)C3)CC2)CCN(C(=O)c2cc(C(F)(F)F)cc(C(F)(F)F)c2)C(Cc2ccccc2)C1` (stereo not drawn) [Compound 88], for which the IC50 on NK1 was 61.7 nM; on NK3, more than 10000 nM.
Consider `COC1(CN2CCN(C3CCN(S(=O)(=O)c4c(C)noc4C)C3)CC2)CCN(C(=O)c2cc(C(F)(F)F)cc(C(F)(F)F)c2)C(Cc2ccccc2)C1` (stereo not drawn) [Compound 89], for which the IC50 on NK1 was 60.3 nM; at NK3 it was 3550 nM.
